{"source": "patent US20170312221A1", "about": "“PHARMACEUTICAL PREPARATION AND METHOD OF ITS PRODUCTION AND USE” (priority 2014, published 2017)", "test_in_all_cases": "minimum inhibitory concentration", "format_in_all_cases": "cell-based", "key": {"[1]": {"system": "Streptococcus pyogenes 421"}, "[2]": {"system": "Escherichia coli NTCT 10418"}, "Proteus vulgaris X": {"system": "Proteus vulgaris X"}, "[3]": {"system": "Staphylococcus aureus ATCC 25923"}}, "data": [{"smiles": "C/C(=C\\C(=O)OCCCCCCCCC(=O)O)C[C@@H]1OC[C@H](C[C@@H]2O[C@H]2[C@@H](C)[C@H](C)O)[C@@H](O)[C@H]1O", "note": "[Mupirocin]", "values": [{"measurement": "Minimum inhibitory concentration (MIC) Streptococcus pyogenes 421", "setting": "[1]", "value": 0.12}, {"measurement": "Minimum inhibitory concentration (MIC) Escherichia coli NTCT 10418", "setting": "[2]", "value": 128}, {"measurement": "Minimum inhibitory concentration (MIC) Proteus vulgaris X", "setting": "Proteus vulgaris X", "value": 64}, {"measurement": "Minimum inhibitory concentration (MIC) Staphylococcus aureus ATCC 25923", "setting": "[3]", "value": 0.25}]}]}
